Read-outs that look alike come from different tables or passages of the source.
How the values were obtained:
c-Src 3T3 cells = test: BrdU cell growth inhibition, c-Src 3T3; assay type: cell-based, mouse; conditions: Mus musculus; for activity at 0.1 µM / activity at 1 µM / activity at 10 µM: NIH3T3, read-out: c-Src 3T3 Growth, % of Control Mean, n = 3; for activity at 0.1 µM: 100 nM; for GI50: c-Src 3T3 (c-Src527F/NIH3T3) cells, read-out: GI50
Protocol: (§1) The GI50s for several of the compounds of the invention were assayed as described herein.
The cells were routinely cultured in DMEM supplemented with Fetal Bovine Serum (2.0% v/V), L-glutamine (2 mM) and Sodium Pyruvate (1 mM).
(§2) In the BrdU Assay for cell growth inhibition, quantitation of cell proliferation was based on the measurement of BrdU incorporation during DNA synthesis. The Cell Proliferation ELISA BrdU assay kit (colorimetric) was obtained from Roche Applied Science and performed as per vendor instructions.
(§3) The growth inhibition (GI) is determined from the formula GI=(T0−Tn×100/T0−CONn) where T0 is the BrdU growth of untreated cells at time “0”, Tn is the BrdU growth of treated cells at day “n” and CONn is the control BrdU growth of control cells at day “n”. The GI50 was extrapolated and the data plotted using XL-Fit 4.0 software.
(§4) For 96 well culture plate experiments, c-Src 3T3 medium was supplemented with 10 mM HEPES buffer. HT-29 cells were seeded in standard tissue culture 96-well plates and c-Src 3T3 cells were seeded in 96-well plates coated with Poly-D-lysine (BIOCOAT™). To increase CO2 diffusion, c-Src 3T3 96-well plates were incubated with their lids raised by ˜2 mm using sterile rubber caps.
(§5) Samples were reconstituted in DMSO at 20 mM and intermediate dilutions made using DMEM containing 10% FBS. […] Plates were assayed for BrdU and the data analyzed as above for GI50.
(§6) All compounds were initially prepared as 20 mM DMSO stock solutions and then diluted into buffer for the in vitro tumor growth assays. NG means no cell growth beyond the control and T means the number of cells in the drug treated wells was less than in the control (i.e. net cell loss).

HT29 cell line = test: BrdU cell growth inhibition, HT29; assay type: cell-based, human; conditions: for activity at 0.05 µM / activity at 0.5 µM / activity at 5 µM: HT-29, read-out: HT-29 Growth, % of Control Mean, n = 3; for activity at 0.05 µM: 50 nM; for activity at 0.5 µM: 500 nM
Protocol: as §1
The HT29 cell line is a NCI standard human colon carcinoma cell line.
as §2, §3, §4, §5, §6
Growth Inhibition. […] T1 values≤T0 values were designated as T, cytotoxicity.

[1] = Homo sapiens, HT-29, HT29 (Colon) cells, read-out: GI50

Row | GI50 (HT29 cell line; [1]) [nM] | GI50 (HT29 cell line; HT29 (Colon) cells) | Structure (SMILES) | activity at 0.1 µM (c-Src 3T3 cells) [%] | activity at 1 µM (c-Src 3T3 cells) [%] | activity at 10 µM (c-Src 3T3 cells) [%] | GI50 (c-Src 3T3 cells) [nM] | activity at 0.05 µM (HT29 cell line; Homo sapiens) [%] | activity at 0.5 µM (HT29 cell line; Homo sapiens) [%] | activity at 5 µM (HT29 cell line; Homo sapiens) [%]
1 |  |  | CCOc1cccc(-c2ccc(CC(=O)NCc3cccc(F)c3)cn2)c1 [KX1-322, 2-[6-(3-Ethoxy-phenyl)-pyridin-3-yl]-N-(3-fluoro-benzyl)-acetamide] | 94.6 | < 0 | < 0 | 3730 | 114 | 87.2 | < 0
2 | 639 |  | CN1CCN(c2ccc(-c3ccc(CC(=O)NCc4cccc(F)c4)nc3)cc2)CC1 [KX2-373] | 97 | < 0 | < 0 | 96 | 64 | < 0 | < 0
3 |  |  | CC(C)COc1cc(F)cc(CNC(=O)Cc2ccc(-c3ccc(OCCN4CCN(C)CC4)cc3)cn2)c1 [KX2-367] | 102 | < 0 | < 0 |  | 64 | 6 | < 0
4 | 173 |  | COc1cc(Nc2c(C#N)cnc3cc(OCCCN4CCN(C)CC4)c(OC)cc23)c(Cl)cc1Cl [SKI-606] |  |  |  | 208 |  |  | 
5 |  |  | CS(=O)(=O)c1ccc(-c2ccc(CC(=O)NCc3cccc(F)c3)cn2)cc1 [KX1-326, N-(3-Fluoro-benzyl)-2-[6-(4-methanesulfonyl-phenyl)-pyridin-3-yl]-acetamide] | 92.2 | 87.3 | 55.7 |  | 65.4 | 73.2 | 43.7
6 |  | inactive | CC(C)COc1cc(F)cc(CNC(=O)Cc2ccc(-c3ccc(OCCN4CCCCC4)cc3)cn2)c1 [KX2-386] |  |  |  | 897 |  |  | 
7 |  |  | CCOc1ccc(-c2ccc(CC(=O)NCc3cc(F)cc(OCC(C)C)c3)nc2)cc1 [KX2-368] | 99 | 101 | 27 |  | 107 | 70 | < 0
8 | 111 |  | O=C(Cc1ccc(-c2ccc(OCCN3CCOCC3)cc2)cn1)NCc1cccc(F)c1 [KX2-377] | < 0 | < 0 | < 0 | 118 | < 0 | < 0 | < 0
9 | 215 |  | CCOc1ccc(-c2ccc(CC(=O)NCc3cccc(F)c3)cn2)cc1 [KX1-325, 2-[6-(4-Ethoxy-phenyl)-pyridin-3-yl]-N-(3-fluoro-benzyl)-acetamide] | 97.6 | 54.2 | < 0 | 207 | 85 | < 0 | < 0
10 | 680 |  | O=C(Cc1ccc(-c2ccncc2)cc1)NCc1cccc(F)c1 [KX1-327] | 81.3 | < 0 | < 0 | > 200 | 31.6 | < 0 | < 0
11 |  |  | CCOc1ccccc1-c1ccc(CC(=O)NCc2cc(F)cc(OCC(C)C)c2)nc1 [KX2-369] | 100 | 101 | < 0 |  | 87 | 72 | < 0
12 |  |  | O=C(Cc1ccc(-c2cccc(F)c2)cc1)NCc1cccc(F)c1 [KX1-310, N-(3-fluorobenzyl)-4-(3-fluorophenyl)phenylacetamide] | 102 | < 0 | < 0 |  | 93.3 | < 0 | < 0
13 |  |  | CC(C)COc1cc(F)cc(CNC(=O)Cc2ccc(-c3ccc(N4CCOCC4)cc3)cn2)c1 [KX2-370] | 104 | 105 | 106 |  | 112 | 93 | 81
14 | 56 |  | O=C(Cc1ccc(-c2ccc(CN3CCOCC3)cc2)cn1)NCc1cccc(F)c1 [KX2-362] | 101 | < 0 | < 0 | 56 | 86 | < 0 | < 0

— US10196357B2, “Biaryl compositions and methods for modulating a kinase cascade” (Athenex, Inc., priority 2007, dated 2019)
